One block for each molecule: values may come before it.
Legend:
[1] = Detection of KDIP and truncated forms in tumour and liver tissue by LC-MS/MS (MRM) after intravenous injection; format: in vivo, mouse; settings: tissues collected 20 min after fifth intravenous injection of KDIP 5 mg/kg, below the limit of detection
Procedure: At 20 min after fifth intravenous injection of KDIP, tumour and liver tissues were collected, immediately frozen using liquid nitrogen and ground with a pestle and mortar. One part of resultant powder by weight was homogenized with two parts of lysis buffer containing 8‐M urea, 25‐mM Tris–HCl (pH 8.5) by volume and was placed in Eppendorf tubes. This lysate was sonicated three times for 2 s with 2‐s intervals of rest at 20% amplitude on ice. Insoluble debris was removed by obtaining supernatant after centrifugation at 14 000 g, 4°C for 15 min.
Peptide extraction from serum or tissue lysate was performed by solid‐phase extraction using Oasis HLB Cartridge 1‐cm^3 (30 mg). HLB cartridges were conditioned using ACN (1 ml) and 50% ACN, .5% FA (1 ml), followed by equilibration using .5% FA (2 ml). A volume of 10‐μl serum and 20 μl of tissue lysate were added by .5% FA to be 1 ml and were loaded on equilibrated cartridges. Cartridges were washed with .5% FA (3 ml), and then peptide was eluted by 50% ACN, .5% FA (500 μl). Eluates were vacuum‐dried using Speed‐Vac and were stored at −80°C until use. Dried samples were reconstituted in .5% FA 50 and 5 μl of sample was loaded on column for LC–MS/MS analysis.
Each sample was analysed using an Agilent 1100 Series high‐performance liquid chromatography pump (Agilent Technologies, USA) coupled to an LTQ linear ion trap mass spectrometer (Thermo Finnigan, USA). Separation of peptide was carried out on a homemade C18‐fused silica column (100‐μm internal diameter) with nano‐electrospray ionization interface. […] Peptide was quantified by multiple reaction monitoring (MRM) in positive ion mode, with a spray voltage of 2.3 kV. […] Furthermore, truncated forms ([…], […]) of KDIP that were detected during stability test were also analysed by following transitions: 468.5 → 404.8 (b16 ^+5), 468.5 → 444.85 (b18 ^+5), 468.5 → 505.7 (b16 ^+4), 468.5 → 551.35 (b18 + H2O^+4), 468.5 → 555.7 (b18 ^+4), 528.45 → 448.85 (b14 ^+4), 528.45 → 499.0 (b16 ^+4), 528.45 → 598.15 (b14 ^+3), 528.45 → 659.25 (b16 + H2O^+3) and 528.45 → 664.95 (b16 ^+3). […]

[2] = biological target: the molecule itself; experiment: SDS-PAGE in the reducing/denaturing condition and Western blot; non-transfected HCT116 and Caco2 cells, regular SDS-PAGE gel, dimer-sized band
[3] = biological target: the molecule itself; experiment: native gel or EMSA; lysates of Caco2 cells transfected with KITENIN-V5, with or without KDIP, on a native SDS-PAGE gel in the non-reducing/non-denaturing condition; immunoblot with anti-KITENIN antibody

detection in regressed tumour tissues or liver by mass spectrometry [1]: not detected
Molecule: ARVRRRGPRRWRLVSDEAV [19‐mer, N-truncated form of KDIP found after incubation with mouse serum]

detection in regressed tumour tissues or liver by mass spectrometry [1]: not detected
Molecule: VRRRGPRRWRLVSDEAV [17‐mer, N-truncated form of KDIP found after incubation with mouse serum]

The remaining lines, values behind:

B1: endogenous KITENIN (natural protein, UniProt Q8TAA9 1-524, looked up)
chain: MDTESTYSGYSYYSSHSKKSHRQGERTRERHKSPRNKDGRGSEKSVTIQPPTGEPLLGNDSTRTEEVQDDNWGETTTAITGTSEHSISQEDIARISKDMEDSVGLDCKRYLGLTVASFLGLLVFLTPIAFILLPPILWRDELEPCGTICEGLFISMAFKLLILLIGTWALFFRKRRADMPRVFVFRALLLVLIFLFVVSYWLFYGVRILDSRDRNYQGIVQYAVSLVDALLFIHYLAIVLLELRQLQPMFTLQVVRSTDGESRFYSLGHLSIQRAALVVLENYYKDFTIYNPNLLTASKFRAAKHMAGLKVYNVDGPSNNATGQSRAMIAAAARRRDSSHNELYYEEAEHERRVKKRKARLVVAVEEAFIHIQRLQAEEQQKAPGEVMDPREAAQAIFPSMARALQKYLRITRQQNYHSMESILQHLAFCITNGMTPKAFLERYLSAGPTLQYDKDRWLSTQWRLVSDEAVTNGLRDGIVFVLKCLDFSLVVNVKKIPFIILSEEFIDPKSHKFVLRLQSETSV
notes: KITENIN (Vangl1), endogenous; also called endogenous KITENIN dimer; source: endogenous, HEK293T, HCT116 or Caco2 lysate
stoichiometry N [2]: 2

B2: V5-tagged KITENIN (natural protein, UniProt Q8TAA9 1-524, looked up)
chain: B1 chain
notes: KITENIN (Vangl1), wild type; also called KITENIN-V5; WT-KITENIN
stoichiometry N [3]: 2
